Assay results taken from publication PMC9231138, “Dihydrotanshinone I Enhances Cell Adhesion and Inhibits Cell Migration in Osteosarcoma U−2 OS Cells through CD44 and Chemokine Signaling” (Molecules, 2022).

Tests used:
Assay type in all cases: cell-based, human
[1] = tested on: U−2 OS cells transfected with CD44 siRNA; assay: Trypsin digestion time, CD44 siRNA knockdown U−2 OS cells; conditions: DS−1 7.5 μM for 24 h, 25 °C, control about 120 s
Method: (§1) Figure 8 CD44 knockdown reduced cell adhesion by shortening cell protrusions. (A) U−2 OS cells transfected with CD44 siRNA and no siRNA were seeded into a 24-well plate treated with 7.5 μM DS−1 for 24 h, and the expression of CD44 was detected by immunofluorescence. (B) CD44 expression of U−2 OS cells was detected by Western blotting after being treated with siRNA for 0, 24, and 36 h. (C) U−2 OS cells were first transfected with/without CD44 siRNA and then treated with DS−1 for 24 h, and its actin morphologies were detected. The representative magnified actin morphologies are listed in (D). (E) The lengths of protrusions in (C) were analyzed by Image J and are shown in a scatterplot graph. The lengths of 20 protrusions from actin in (C) were calculated. Each value is the average of 20 lengths of protrusions, ** p < 0.01, *** p < 0.005. (F) U−2 OS cells were transfected with CD44 siRNA, then treated with 0 and 7.5 μM DS−1 for 24 h and digested with trypsin at 25 °C; the digestion time was recorded by a microscope, and photos were taken every 30 s. The percentage of digested cells is recorded in (G).
Small interfering RNA (siRNA) oligonucleotide was synthesized by Sunya Biotechnology Co., Ltd (Hangzhou, China). The siRNA sequences were as follows: sense (5′–3′), UAUUCCACGUGGAGAAAAAtt; antisense (5′–3′), UUUUUCUCCACGUGGAAUAca. […]

[2] = tested on: cyclin D1; assay: RT-PCR cyclin D1 mRNA in U−2 OS cells; conditions: 24 h
Method: (§2) Total RNA within cells was extracted by the RNAeasy™ Animal Long RNA Isolation Kit with Spin Column (Shanghai, Beyotime); the concentrations and OD260/OD280 and OD230/OD260 values were measured by NanoDrop. Five micrograms of RNA was used for reverse transcription; each sample was diluted to 16 μL, and 4 μL of synthesized premix solution (5×) was added, then the mixtures were placed in a 42 °C water bath for 10 min, then an 80 °C water bath for 10 min to deactivate reverse transcriptase. After reverse transcription, each sample was diluted to 140 μL. PCR amplification was carried out by the ABI700 real-time PCR system, and the amplification reaction was detected with a SYBR probe. After PCR, actin and GAPDH were used as internal references, and the relative standard curve method (2^−ΔΔcT) determined the relative expression of mRNA.

[3] = tested on: CD44; assay: Western blot of 80 kDa and 70 kDa CD44; conditions: DS−1 2.5, 5.0, and 7.5 µM for 24 h
Method: (§3) Sample preparation: U−2 OS cells seeded in 10 cm Petri dishes were collected and washed with ice-cold PBS and RIPA lysis buffer with PMAF; phosphatase inhibitor was added, and the tubes were placed on ice for 30 min and vortexed for 30 s at intervals of 10 min. The samples were centrifuged at 12,000 g at 4 °C for 15 min, and the supernatants were collected in new centrifuge tubes. The protein samples were placed on ice, and the concentration of each protein sample was measured by the BCA kit (Thermo). The protein concentration was adjusted to the same by milli Q ultrapure water.
(§4) Loading and running the gel: Equal amounts of protein were loaded into the wells of the 10% SDS-PAGE gel, along with molecular weight markers, and 15 μg of total protein from the cell lysate was loaded. We then ran the gel for 45 min at 200 V.
(§5) Transferring the protein: We prepared the transfer stack as follows: negative plate, sponge, filter paper, gel, PVDF membrane, filter paper, sponge, and positive plate. The transfer was for 90 min at 200 mA.
(§6) Antibody staining: We blocked the membrane for 1 h at room temperature using 5% blocking solution, then incubated the membrane with appropriate dilutions of the primary antibody in the blocking solution overnight at 4 °C. […] Images were acquired using darkroom development techniques for chemiluminescence and analyzed by Image J.

[4] = tested on: AKT; assay: Western blot AKT; conditions: DS−1 2.5, 5.0, and 7.5 µM, 24 h
Method: as §3, §4, §5, §6

[5] = tested on: cyclin E1; assay: RT-PCR cyclin E1 mRNA in U−2 OS cells; conditions: 24 h
Method: as §2

[6] = tested on: U−2 OS cells; assay: Length of actin protrusions (Image J); conditions: DS−1 for 24 h
Method: as §1
Actin promotes the formation of protrusions around the cells. After CD44 knockdown and DS−1 treatment, the morphology of actin was observed. The average length of protrusions was measured by Image J [59]. […]

[7] = tested on: FASN; assay: RT-PCR FASN mRNA in U−2 OS cells; conditions: 24 h
Method: as §2

[8] = tested on: phospho-STAT3; assay: Western blot phospho-STAT3; conditions: 24 h
Method: as §3, §4, §5
Antibody staining: We blocked the membrane for 1 h at room temperature using 5% blocking solution, then incubated the membrane with appropriate dilutions of the primary antibody in the blocking solution overnight at 4 °C. We then washed the membrane with TBST reagent 3 times, 5 min each. Then, we incubated the membrane with the recommended dilution of labeled secondary antibody in blocking solution at room temperature for 1 h and washed the membrane with TBST reagent 3 times, 5 min each. For signal development, super-enhanced chemiluminescence detection reagents were added to the surface of the membrane for 1 min, then excess reagent was removed, and the membrane was covered in transparent plastic wrap. Images were acquired using darkroom development techniques for chemiluminescence and analyzed by Image J.

[9] = first of three DS−1 doses (2.5 µM per Fig. 5 legend)
[10] = second of three DS−1 doses (5.0 µM per Fig. 5 legend)
[11] = third of three DS−1 doses (7.5 µM per Fig. 5 legend)

Cc1cccc2c3c(ccc12)C1=C(C(=O)C3=O)[C@@H](C)CO1 [DS−1, 15,16-Dihydrotanshinone I]
time to total trypsin digestion [1]: ≤ 150 s
cyclin D1 mRNA, fold of the control group [2, 9]: 0.27 ± 0.06 fold
cyclin D1 mRNA, fold of the control group [2, 10]: 0.29 ± 0.06 fold
cyclin D1 mRNA, fold of the control group [2, 11]: 0.20 ± 0.04 fold
70 kDa CD44 protein [3]: decreased
80 kDa CD44 protein [3]: significantly increased
expression of AKT [4]: no significant change
cyclin E1 mRNA, fold of the control group [5, 9]: 0.52 ± 0.04 fold
cyclin E1 mRNA, fold of the control group [5, 10]: 0.48 ± 0.08 fold
cyclin E1 mRNA, fold of the control group [5, 11]: 0.36 ± 0.04 fold
average length of protrusions ([6]; CD44 knockdown group, knockdown without DS−1 0.203 ± 0.056 μm): 0.213 ± 0.061 μm
average length of protrusions ([6]; no CD44 siRNA, control 0.307 ± 0.097 μm): 0.403 ± 0.103 μm
FASN mRNA, fold of the control group ([7]; DS−1 2.5 µM): 0.59 ± 0.14 fold
FASN mRNA, fold of the control group ([7]; DS−1 5.0 µM): 0.51 ± 0.07 fold
FASN mRNA, fold of the control group ([7]; DS−1 7.5 µM): 0.26 ± 0.01 fold
phospho-STAT3, fold of the control group ([8]; DS−1 2.5 µM): 0.59 ± 0.09 fold
phospho-STAT3, fold of the control group ([8]; DS−1 5.0 µM): 0.43 ± 0.03 fold
phospho-STAT3, fold of the control group ([8]; DS−1 7.5 µM): 0.32 ± 0.03 fold
ratio of pSTAT3/STAT3 ([8]; DS−1 2.5, 5.0, and 7.5 µM): significantly decreased
